The text below walks through data of patent publication US9062041B2 (Bayer Intellectual Property GmbH, priority 2011, dated 2015).

The term IC50 denotes the concentration that gives 50% inhibition.

What all share (format): cell-based
For assay [1], the target named is EP2 subtype of the human PGE2 receptor (Homo sapiens, UniProt P43116). As to the kind of experiment: cAMP antagonism test on the human EP2 receptor (HTRF cAMP detection). To be noted: hEP2 receptor, read-out: Antagonism hEP2 IC50. In short, it runs like this:
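Cells expressing human EP2 preincubated 20 min at RT with compound (0.8 nM–16.5 μM), then stimulated 60 min with PGE2 (3× solution 1.5 nM) in PBS-IBMX. After 20 min lysis, cAMP measured by competitive HTRF with cAMP-d2 and Eu cryptate anti-cAMP antibody (665/620 nm ratio).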

Assay [2] deals with EP4 subtype of the human PGE2 receptor (Homo sapiens, UniProt P35408). As to the kind of experiment: cAMP antagonism test on the human EP4 receptor (HTRF cAMP detection). As to conditions: selectivity towards hEP4, IC50 measured by cAMP antagonism test. In short, it runs like this: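 Cells expressing human EP4 preincubated 20 min at RT with compound (0.8 nM–16.5 μM), then stimulated with PGE2 (0.3 nM in 3× solution, with IBMX) 60 min at RT. After lysis, cAMP measured by HTRF competition (665/620 nm ratio); antagonism seen as rise in FRET signal.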

Another assay deals with T1, human PGD receptor (Homo sapiens, UniProt Q13258).
T1 sequence (Q13258 1-359): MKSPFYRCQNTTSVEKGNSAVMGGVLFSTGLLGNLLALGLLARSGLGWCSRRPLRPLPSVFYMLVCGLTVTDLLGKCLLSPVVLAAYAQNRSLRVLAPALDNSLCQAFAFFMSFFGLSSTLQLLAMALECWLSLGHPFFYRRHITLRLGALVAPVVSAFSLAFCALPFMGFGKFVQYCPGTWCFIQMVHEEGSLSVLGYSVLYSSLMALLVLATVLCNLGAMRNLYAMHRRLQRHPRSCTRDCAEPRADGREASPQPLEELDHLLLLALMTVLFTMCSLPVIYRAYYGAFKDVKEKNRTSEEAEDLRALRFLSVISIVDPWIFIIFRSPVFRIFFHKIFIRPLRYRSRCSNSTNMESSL
As to the kind of experiment: cAMP antagonism test on the human prostaglandin D receptor (HTRF cAMP detection). To be noted: selectivity towards hDP, IC50 measured by cAMP antagonism test. In short, it runs like this:
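Cells pre-mixed with cAMP-d2 were preincubated with compound (0.8 nM–16.5 μM) for 20 min at RT, then stimulated with 3× PGD2 solution (6 nM, in PBS-IBMX) for 30 min at RT. After lysis (20 min), HTRF read at 665/620 nm; antagonism seen as rise in FRET ratio.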
(Time-resolved FRET reads energy transfer from a long-lived donor to a nearby acceptor.)

Molecules are shown by their SMILES.

Chain of EP2 subtype of the human PGE2 receptor (P43116 whole entry): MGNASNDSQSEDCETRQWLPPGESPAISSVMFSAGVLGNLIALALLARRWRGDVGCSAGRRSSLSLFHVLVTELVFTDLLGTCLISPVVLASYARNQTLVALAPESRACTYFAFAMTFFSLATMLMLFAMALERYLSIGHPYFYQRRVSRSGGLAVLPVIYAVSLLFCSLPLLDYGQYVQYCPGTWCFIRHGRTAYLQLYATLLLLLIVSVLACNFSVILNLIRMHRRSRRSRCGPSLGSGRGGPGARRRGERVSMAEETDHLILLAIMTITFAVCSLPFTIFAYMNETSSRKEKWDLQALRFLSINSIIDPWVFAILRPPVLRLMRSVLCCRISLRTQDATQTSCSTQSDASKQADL
Chain of EP4 subtype of the human PGE2 receptor (P35408 whole entry): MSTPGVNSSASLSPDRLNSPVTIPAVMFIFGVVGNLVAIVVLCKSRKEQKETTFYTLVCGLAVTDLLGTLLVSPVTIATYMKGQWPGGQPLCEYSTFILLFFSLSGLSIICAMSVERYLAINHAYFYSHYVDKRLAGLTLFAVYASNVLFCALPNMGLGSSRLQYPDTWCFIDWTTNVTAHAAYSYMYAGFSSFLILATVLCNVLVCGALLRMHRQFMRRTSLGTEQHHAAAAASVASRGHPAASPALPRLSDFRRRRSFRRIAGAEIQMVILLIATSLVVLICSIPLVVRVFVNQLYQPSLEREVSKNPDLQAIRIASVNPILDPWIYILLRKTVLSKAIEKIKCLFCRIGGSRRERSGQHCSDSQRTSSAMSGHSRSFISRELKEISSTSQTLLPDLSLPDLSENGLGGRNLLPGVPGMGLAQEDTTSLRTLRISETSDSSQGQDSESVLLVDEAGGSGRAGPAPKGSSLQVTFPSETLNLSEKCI

On to `COCCNC(=O)c1cc2cn(CC3CCN(C(=O)c4ccc(Cl)cc4)CC3)nc2cc1C` [Example 205, 2-{[1-(4-chlorobenzoyl)piperidin-4-yl]methyl}-N-(2-methoxyethyl)-6-methyl-2H-indazol-5-carboxamide], for which the concentration for half-maximal inhibition (IC50) in assay [1] is 43.3 nM. The “Selectivity hEP2/hEP4” value in assay [2] was “xxx (xxx > 100)”. Also, the “Selectivity hEP2/hDP” value at human PGD receptor is recorded as “xxx (xxx > 100)”.
Take `COCCNC(=O)c1cc2cn(CC3CCN(C(=O)c4ccc(Cl)cc4F)CC3)nc2cc1C` [Example 207, 2-{[1-(4-chloro-2-fluorobenzoyl)piperidin-4-yl]methyl}-N-(2-methoxyethyl)-6-methyl-2H-indazol-5-carboxamide]: in assay [1], the IC50 came out at 30.3 nM. In addition, the “Selectivity hEP2/hEP4” value in assay [2] was “xxx (xxx > 100)”. Also, the “Selectivity hEP2/hDP” value at human PGD receptor was “xxx (xxx > 100)”.
Consider `COCCNC(=O)c1ccc2nn(CC3CN(C(=O)c4ccc(-c5ccc(F)cc5)cc4)C3)cc2c1C` [Example 158, 2-({1-[(4′-fluorobiphenyl-4-yl)carbonyl]azetidin-3-yl}methyl)-N-(2-methoxy-ethyl)-4-methyl-2H-indazol-5-carboxamide], for which the IC50 in assay [1] is 6.21 nM. For the same compound, the “Selectivity hEP2/hEP4” value in assay [2] is recorded as “xxx (xxx > 100)”. Also, at human PGD receptor, the “Selectivity hEP2/hDP” value is reported as “xxx (xxx > 100)”.
`Cc1c(C(=O)NCCOC(C)C)ccc2nn(CC3CCN(C(=O)c4ccc(Cl)cc4)CC3)cc12` [Example 96, 2-{[1-(4-chlorobenzoyl)piperidin-4-yl]methyl}-N-(2-isopropoxyethyl)-4-methyl-2H-indazol-5-carboxamide]: in assay [1], the IC50 amounted to 9.42 nM. In addition, the “Selectivity hEP2/hEP4” value in assay [2] is on record as “xxx (xxx > 100)”. The “Selectivity hEP2/hDP” value at human PGD receptor was “xxx (xxx > 100)”.
In the case of `Cc1c(C(=O)NCCCO)ccc2nn(CC3CCN(C(=O)c4ccc(Cl)cc4)CC3)cc12` [Example 253, 2-{[1-(4-chlorobenzoyl)piperidin-4-yl]methyl}-N-(3-hydroxypropyl)-4-methyl-2H-indazol-5-carboxamide], the IC50 in assay [1] is 168 nM. For the same compound, the “Selectivity hEP2/hEP4” value in assay [2] was “xx (xx: 10-100)”. At human PGD receptor, the “Selectivity hEP2/hDP” value is “xx (xx: 10-100)”.
As for `Cc1cc2nn(CC3CN(C(=O)c4ccc(Cl)cc4)C3)cc2cc1C(=O)NCCN1CCOCC1` [Example 278, 2-{[1-(4-chlorobenzoyl)azetidin-3-yl]methyl}-6-methyl-N-(2-morpholinoethyl)-2H-indazol-5-carboxamide], the IC50 in assay [1] is 104 nM. Further, in assay [2], the “Selectivity hEP2/hEP4” value is “xxx (xxx > 100)”. The “Selectivity hEP2/hDP” value on human PGD receptor is reported as “xxx (xxx > 100)”.
Take `COCCNC(=O)c1ccc2nn(CC3CCN(C(=O)c4ccc(-c5cccc(C(F)(F)F)c5)cc4F)CC3)cc2c1C` [Example 45, 2-[(1-{[3-fluoro-3′-(trifluoromethyl)-biphenyl-4-yl]-carbonyl}-piperidin-4-yl)-methyl]-N-(2-methoxyethyl)-4-methyl-2H-indazol-5-carboxamide]: the IC50 in assay [1] is 5.51 nM. The “Selectivity hEP2/hEP4” value in assay [2] was “xxx (xxx > 100)”. Further, the “Selectivity hEP2/hDP” value at human PGD receptor is reported as “xxx (xxx > 100)”.
Regarding `Cc1c(C(=O)NCC#N)ccc2nn(CC3CCN(C(=O)c4ccc(Cl)cc4)CC3)cc12` [Example 401, 2-{[1-(4-chlorobenzoyl)piperidin-4-yl]methyl}-N-(cyanomethyl)-4-methyl-2H-indazol-5-carboxamide], in assay [1], the IC50 was 155 nM. For the same compound, the “Selectivity hEP2/hEP4” value in assay [2] was “xxx (xxx > 100)”. Also, the “Selectivity hEP2/hDP” value at human PGD receptor is recorded as “xxx (xxx > 100)”.
As to `COCCNC(=O)c1ccc2nn(CC3CCN(C(=O)c4ccc(OC5CCCC5)cc4)CC3)cc2c1C` [Example 31, 2-({1-[4-(cyclo-pentyloxy)benzoyl]-piperidin-4-yl}-methyl)-N-(2-methoxyethyl)-4-methyl-2H-indazol-5-carboxamide], the IC50 in assay [1] amounted to 3.08 nM. Further, the “Selectivity hEP2/hEP4” value in assay [2] was “xxx (xxx > 100)”. For the same compound, at human PGD receptor, the “Selectivity hEP2/hDP” value was “xxx (xxx > 100)”.
As for `Cc1cc2nn(CC3CCN(C(=O)c4ccc(Cl)cc4)CC3)cc2cc1C(=O)NCCN1CCOCC1` [Example 74, 2-{[1-(4-chlorobenzoyl)piperidin-4-yl]methyl}-6-methyl-N-(2-morpholinoethyl)-2H-indazol-5-carboxamide], the IC50 in assay [1] amounted to 95.4 nM. For the same compound, the “Selectivity hEP2/hEP4” value in assay [2] was “xxx (xxx > 100)”. Further, at human PGD receptor, the “Selectivity hEP2/hDP” value was “xxx (xxx > 100)”.
Regarding `COCCNC(=O)c1ccc2nn(CC3CCN(C(=O)c4ccc(C#N)cc4F)CC3)cc2c1C` [Example 1, 2-{[1-(4-cyano-2-fluorobenzoyl)piperidin-4-yl]methyl}-N-(2-methoxyethyl)-4-methyl-2H-indazol-5-carboxamide], in assay [1], the IC50 was determined as 103 nM. In assay [2], the “Selectivity hEP2/hEP4” value is reported as “xxx (xxx > 100)”. The “Selectivity hEP2/hDP” value on human PGD receptor is on record as “xxx (xxx > 100)”.
Regarding `COCCNC(=O)c1ccc2nn(CC3CCN(C(=O)c4ccc(Oc5ccncc5)cc4)CC3)cc2c1C` [Example 51, N-(2-methoxyethyl)-4-methyl-2-({1-[4-(pyridyloxy)benzoyl]piperidin-4-yl}-methyl)-2H-indazol-5-carboxamide], in assay [1], the IC50 is 60 nM. Besides, the “Selectivity hEP2/hEP4” value in assay [2] is given as “xxx (xxx > 100)”. At human PGD receptor, the “Selectivity hEP2/hDP” value was “xxx (xxx > 100)”.
As for `Cc1c(C(=O)NCC2COCCO2)ccc2nn(CC3CCN(C(=O)c4ccc(Oc5ccc(C(F)(F)F)cc5)cc4)CC3)cc12` (single isomer, unassigned) [Example 419, (R or S)—N-(1,4-dioxan-2-ylmethyl)-4-methyl-2-[(1-{4-[4-(trifluoromethyl)-phenoxy]benzoyl}piperidin-4-yl)methyl]-2H-indazol-5-carboxamide], in assay [1], the IC50 stood at 10.9 nM. Moreover, in assay [2], the “Selectivity hEP2/hEP4” value is reported as “xxx (xxx > 100)”. The “Selectivity hEP2/hDP” value on human PGD receptor is “xxx (xxx > 100)”.
As to `COCCNC(=O)c1ccc2nn(CC3CCN(C(=O)c4ccc(Oc5ccc(F)c(F)c5)cc4)CC3)cc2c1C` [Example 359, 2-({1-[4-(3,4-difluorophenoxy)benzoyl]piperidin-4-yl}methyl)-N-(2-methoxy-ethyl)-4-methyl-2H-indazol-5-carboxamide], in assay [1], the IC50 was found to be 6.99 nM. Besides, in assay [2], the “Selectivity hEP2/hEP4” value is given as “xxx (xxx > 100)”. At human PGD receptor, the “Selectivity hEP2/hDP” value was “xxx (xxx > 100)”.
Regarding `Cc1c(C(=O)NCC2COCCO2)ccc2nn(CC3CN(C(=O)c4ccc(Cl)cc4)C3)cc12` (single isomer, unassigned) [Example 142, (R or S)-2-{[1-(4-chlorobenzoyl)azetidin-3-yl]methyl}-N-(1,4-dioxan-2-ylmethyl)-4-methyl-2H-indazol-5-carboxamide], the half-maximal inhibitory concentration (IC50) in assay [1] stood at 713 nM. For the same compound, the “Selectivity hEP2/hEP4” value in assay [2] is recorded as “xx (xx: 10-100)”. In addition, the “Selectivity hEP2/hDP” value at human PGD receptor is reported as “xx (xx: 10-100)”.
Regarding `COCCNC(=O)c1ccc2nn(CC3CCN(C(=O)c4ccccc4OC)CC3)cc2c1C` [Example 24, 2-{[1-(2-methoxy-benzoyl)piperidin-4-yl]methyl}-N-(2-methoxyethyl)-4-methyl-2H-indazol-5-carboxamide], the IC50 in assay [1] was 60.1 nM. The “Selectivity hEP2/hEP4” value in assay [2] is recorded as “xxx (xxx > 100)”. Also, the “Selectivity hEP2/hDP” value at human PGD receptor was “xxx (xxx > 100)”.
As to `Cc1ccc(C(=O)N2CCC(Cn3cc4c(C)c(C(=O)NCCOCC(F)(F)F)ccc4n3)CC2)cc1` [Example 91, 4-methyl-2-{[1-(4-methylbenzoyl)-piperidin-4-yl]-methyl}-N-[2-(2,2,2-trifluoro-ethoxy)ethyl]-2H-indazol-5-carboxamide], the IC50 in assay [1] was 20.3 nM. Also, in assay [2], the “Selectivity hEP2/hEP4” value is recorded as “xxx (xxx > 100)”. Also, the “Selectivity hEP2/hDP” value on human PGD receptor is listed as “xxx (xxx > 100)”.
As for `COCCNC(=O)c1ccc2nn(CC3CCN(C(=O)c4ccc(N5CCCC5)cc4F)CC3)cc2c1C` [Example 41, 2-({1-[2-fluoro-4-(pyrrolidin-1-yl)-benzoyl]piperidin-4-yl}methyl)-N-(2-methoxyethyl)-4-methyl-2H-indazol-5-carboxamide], the IC50 in assay [1] was found to be 5.62 nM. The “Selectivity hEP2/hEP4” value in assay [2] is “xxx (xxx > 100)”. For the same compound, the “Selectivity hEP2/hDP” value on human PGD receptor is “xxx (xxx > 100)”.
For `Cc1c(C(=O)NCCOC(C)(C)C)ccc2nn(CC3CCN(C(=O)c4ccc(-c5ccc(F)cc5)cc4)CC3)cc12` [Example 113, N-(2-tert-butoxyethyl)-2-({1-[(4′-fluoro-biphenyl-4-yl)-carbonyl]piperidin-4-yl}methyl)-4-methyl-2H-indazol-5-carboxamide], the IC50 in assay [1] worked out at 13.9 nM. Further, in assay [2], the “Selectivity hEP2/hEP4” value is “xxx (xxx > 100)”. Also, the “Selectivity hEP2/hDP” value at human PGD receptor is listed as “xxx (xxx > 100)”.
